In PMC6920997, “Total Phenolic and Flavonoid Content and Biological Activities of Extracts and Isolated Compounds of Cytisus villosus Pourr” (Biomolecules, 2019):
pIC50: −log10 of the molar value. ≈ marks a conversion by molar mass, not a printed value. Where two headings read alike, the source gives them in different places.

Key:
[1] = system: THP1 cells; assay: THP1 cytotoxicity; type: cell-based
From the text: (§1) The in vitro antileishmanial and antitrypanosomal assays were done on cell cultures of L. donovani promastigotes, axenic amastigotes, THP1-amastigotes, and Trypanosoma brucei trypomastigotes by Alamar Blue assays. The conditions for seeding the THP1 cells, exposure to the test samples, and evaluation of cytotoxicity were the same as described in parasite-rescue and transformation assay. IC50 and IC90 values were computed from the dose response curves using XLfit software (XLfit 5.3.1, IDBS analytical, Boston MA, USA). DFMO (difluoromethylornithine) was used as the positive control. The antiprotozoal activity of C. villosus extracts and isolated compounds were evaluated in vitro against L. donovani promastigotes, axenic amastigotes, and intracellular amastigotes in THP1 cells. The extracts and some isolated compounds were also evaluated against T. brucei trypomastigote forms. All the extracts and compounds were simultaneously tested against THP1 cell for determination of general cytotoxicity. The extracts and isolated compounds were also evaluated for their antimalarial activity against chloroquine-sensitive (D6, Sierra Leone) and chloroquine-resistant strains (W2, Indochina) strains of Plasmodium falciparum. Furthermore, they were tested for cytotoxicity against the Vero cell line.

[2] = THP1 cytotoxicity; type: cell-based; conditions: human
From the text: as §1

[3] = system: Trypanosoma brucei trypomastigotes; assay: Antitrypanosomal Alamar Blue assay; type: cell-based; conditions: for pIC50 / IC90: Table 4; for pIC50: read-out: T. brucei IC50; for IC90: read-out: T. brucei IC90
From the text: as §1

[4] = system: L. donovani intracellular amastigotes in THP1 cells; assay: Antileishmanial assay, intracellular amastigotes in THP1 cells; type: cell-based; conditions: Leishmania donovani; for pIC50: THP-1, read-out: L. donovani Amastigote/THP1 IC50; for IC90: THP-1, read-out: L. donovani Amastigote/THP1 IC90
From the text: as §1

[5] = system: L. donovani axenic amastigotes; assay: Antileishmanial Alamar Blue assay, axenic amastigotes; type: cell-based; conditions: Leishmania donovani; for pIC50: read-out: L. donovani Amastigote IC50; for IC90: read-out: L. donovani Amastigote IC90
From the text: as §1

[6] = system: L. donovani promastigotes; assay: Antileishmanial Alamar Blue assay, promastigotes; type: cell-based; conditions: Leishmania donovani; for pIC50: read-out: L. donovani Promastigote IC50; for IC90: read-out: L. donovani Promastigote IC90
From the text: as §1

[7] = system: iNOS; assay: Inhibition of iNOS (intracellular NO production) in RAW 264.7 macrophages; type: cell-based; conditions: Mus musculus, RAW264.7; RAW 264.7 cells; NA = no activity at 25 µg/mL (pure compounds) or 100 µg/mL (extracts)
Method: The extracts and isolated compounds of C. villosus were evaluated in terms of their interaction with cellular targets related to inflammation and metabolic disorders, such as iNOS and NF-κB. The inhibition of intracellular NO production as a result of iNOS activity was assayed in mouse macrophages (RAW 264.7cells). Cytotoxicity of test samples to macrophages was also determined in parallel to check if the inhibition of iNOS was due to cytotoxic effects.

[8] = system: NF-κB; assay: Reporter gene assay for the inhibition of NF-κB; type: cell-based; conditions: PMA-treated cells, luciferase reporter; NA = no activity at 25 µg/mL (pure compounds) or 100 µg/mL (extracts); read-out: Inhibition of NF-kB IC50
Method: Reporter gene assay for the inhibition of NF-κB Activity was performed as described earlier. In brief, cells transfected with NF-κB luciferase plasmid construct were plated in 96-well plates at a density of 1.25 × 10^5 cells/well. After 24 h, cells were treated with the test compounds and, after incubating for 30 min, phorbol 12-myristate 13-acetate (PMA) (Sigma-Aldrich, Burlington MA, USA) (70 ng/mL) was added and further incubated for 6−8 h. Luciferase activity was measured as described above. Percent decrease in luciferase activity was calculated relative to the vehicle control. Parthenolide (Sigma-Aldrich, Burlington MA, USA) was used as a positive control.

[9] = system: P. falciparum (W2 Clone); assay: Antimalarial assay, chloroquine-resistant W2 clone; type: cell-based, Plasmodium falciparum; conditions: for SI (second SI column of Table 7, presumably W2): selectivity index = IC50 for cytotoxicity/IC50 for antimalarial activity
From the text: as §1

[10] = system: Escherichia coli; assay: Antibacterial assay E. coli; type: cell-based; conditions: for IC50: pure compounds; for inhibition at 50 µg/mL: Concentration: 50 μg/mL, <50 considered inactive, read-out: % Growth Inhibition E. coli
Method: (§2) Extracts and pure compounds were tested for their antimicrobial activity against Staphylococcus aureus, methicillin-resistant S. aureus (MRSA), Escherichia coli, Pseudomonas aeruginosa, and Mycobacterium intracellulare. The antifungal activities were evaluated against a panel of pathogenic fungi, including Candida albicans, C. glabrata, C. krusei, Aspergillus fumigatus, and Cryptococcus neoformans, associated with opportunistic infections.

[11] = system: Cryptococcus neoformans; assay: Antifungal assay C. neoformans; type: cell-based; conditions: for IC50: pure compounds; for inhibition at 50 µg/mL: Concentration: 50 μg/mL, <50 considered inactive, read-out: % Growth Inhibition C. neoformans
Method: as §2

[12] = system: Pseudomonas aeruginosa; assay: Antibacterial assay P. aeruginosa; type: cell-based; conditions: for IC50: pure compounds; for inhibition at 50 µg/mL: Concentration: 50 μg/mL, <50 considered inactive, read-out: % Growth Inhibition P. aeruginosa
Method: as §2

[13] = system: P. falciparum (D6 Clone); assay: Antimalarial assay, chloroquine-sensitive D6 clone; type: cell-based, Plasmodium falciparum; conditions: for SI (first SI column of Table 7, presumably D6): selectivity index = IC50 for cytotoxicity/IC50 for antimalarial activity
From the text: as §1

[14] = system: Candida albicans; assay: Antifungal assay C. albicans; type: cell-based; conditions: for IC50: pure compounds; for inhibition at 50 µg/mL: Concentration: 50 μg/mL, <50 considered inactive, read-out: % Growth Inhibition C. albicans
Method: as §2

[15] = system: Staphylococcus aureus; assay: Antibacterial assay S. aureus; type: cell-based; conditions: pure compounds
Method: as §2

[16] = Cytotoxicity against Vero cell line (antimalarial counterscreen); type: cell-based; conditions: African green monkey, column head does not name the cells, read-out: IC50 (third IC50 column of Table 7, presumably Vero cytotoxicity)
From the text: as §1

[17] = system: methicillin-resistant S. aureus (MRSA); assay: Antibacterial assay MRSA; type: cell-based; conditions: Staphylococcus aureus; for inhibition at 50 µg/mL: Concentration: 50 μg/mL, <50 considered inactive, read-out: % Growth Inhibition MRSA
Method: as §2

[18] = system: Aspergillus fumigatus; assay: Antifungal assay A. fumigatus; type: cell-based
Method: as §2

[19] = system: HepG2 cells; assay: Cellular antioxidant activity (CAA) assay; type: cell-based
Method: The cellular antioxidant activity was measured in HepG2 cells as described by Wolfe and Rui. The antioxidant activity was expressed in terms of CAA units. The area under the curve (AUC) of fluorescence versus time plot was used to calculate CAA units as described by Wolfe and Rui.

[20] = DPPH radical scavenging assay; conditions: mean ± SD of three measurements
Method: The antioxidant activity of the extracts and pure isolated compounds was determined by applying the 2,2-diphenyl-1-picrylhydrazyl (DPPH) radical scavenging method.

[21] = THP1 cells, read-out: THP1 Cytotoxicity IC50

N=C(N)c1ccc(OCCCCCOc2ccc(C(=N)N)cc2)cc1 [Pentamidine, reference compound]
THP1 Cytotoxicity C90 ([1]; human): >10 µM
pIC50 [2]: < 5.00
pIC50 ([3]; Trypanosoma brucei): 9.00
IC90 ([3]; Trypanosoma brucei): 0.002 µM
pIC50 [4]: 5.94
IC90 [4]: 5.59 µM
pIC50 [5]: 5.02
IC90 [5]: > 10 µM
pIC50 [6]: 5.83
IC90 [6]: 2380 nM

C=C1C(=O)O[C@H]2[C@H]1CC/C(C)=C/CC[C@@]1(C)O[C@@H]21 [Parthenolide, reference compound]
IC50 [7]: 0.2 µg/mL (≈ 0.805 µM)
IC50 [8]: 1.63 µg/mL (≈ 6.56 µM)

O=c1cc(-c2ccccc2)oc2cc(O[C@@H]3O[C@H](CO)[C@@H](O)[C@H](O)[C@H]3O)cc(O)c12 [Compound 3, chrysin-7-O-β-D-glucopyranoside]
SI (second SI column of Table 7, presumably W2) [9]: 1
IC50 [10]: > 20 µg/mL
IC50 [7]: 20 µg/mL (≈ 48 µM)
THP1 Cytotoxicity C90 [1]: >10 µM
pIC50 [2, 21]: < 5.00
IC50 [11]: > 20 µg/mL
pIC50 ([3]; Trypanosoma brucei): < 5.00
IC90 ([3]; Trypanosoma brucei): > 10 µM
pIC50 [4]: < 5.00
IC90 [4]: > 10 µM
IC50 [12]: > 20 µg/mL
SI (first SI column of Table 7, presumably D6) [13]: 1
pIC50 [5]: < 5.00
IC90 [5]: > 10 µM
IC50 [14]: > 20 µg/mL
pIC50 [6]: < 5.00
IC90 [6]: > 10000 nM
IC50 [15]: > 20 µg/mL
IC50 ([16]; Vero cells): > 4.76 µg/mL

CCN(CC)CCCC(C)Nc1ccnc2cc(Cl)ccc12 (centres unmarked) [CQ, Chloroquine, reference compound]
IC50 ([9]; Plasmodium falciparum, W2, read-out: IC50 (second IC50 column of Table 7, presumably P. falciparum W2)): 0.116 µg/mL (≈ 0.363 µM)
SI (second SI column of Table 7, presumably W2) [9]: >2.1
inhibition at 0.0793 µg/mL ([13]; Plasmodium falciparum, D6, read-out: %Inhibition P. falciparum (D6 Clone)): 100%
IC50 ([13]; Plasmodium falciparum, read-out: IC50): < 0.026 µg/mL
SI (first SI column of Table 7, presumably D6) [13]: >9
IC50 [16]: > 0.238 µg/mL

O=c1c(-c2ccc(O)cc2)coc2cc(O)cc(O)c12 [Compound 1, genistein]
IC50 [7]: 9 µg/mL (≈ 33.3 µM)
IC50 [8]: 28 µg/mL (≈ 104 µM)

C[C@@H]1[C@H](O)[C@@H](C)/C=C/C=C/C=C/C=C/C=C/C=C/C=C/[C@H](O[C@@H]2O[C@H](C)[C@@H](O)[C@H](N)[C@@H]2O)C[C@@H]2O[C@](O)(C[C@@H](O)C[C@@H](O)[C@H](O)CC[C@@H](O)C[C@@H](O)CC(=O)O[C@H]1C)C[C@H](O)[C@H]2C(=O)O [Amphotericin B, reference compound]
inhibition at 50 µg/mL [10]: 0%
inhibition at 50 µg/mL [17]: 1%
THP1 Cytotoxicity C90 ([1]; human): >2 µM
pIC50 [2]: < 5.70
inhibition at 50 µg/mL [11]: 100%
pIC50 [4]: 6.73
IC90 [4]: 0.421 µM
inhibition at 50 µg/mL [12]: 0%
pIC50 [5]: 6.68
IC90 [5]: 0.374 µM
inhibition at 50 µg/mL ([18]; Concentration: 50 μg/mL, <50 considered inactive, read-out: % Growth Inhibition A. fumigatus): 93%
inhibition at 50 µg/mL [14]: 100%
pIC50 [6]: 6.87
IC90 [6]: 215 nM

O=c1c(O)c(-c2ccc(O)c(O)c2)oc2cc(O)cc(O)c12 [Quercetin, reference compound]
% Decrease in Oxidative Stress ([19]; 25 µM): 77%

NCCCC(N)(C(=O)O)C(F)F (centres unmarked) [DFMO, difluoromethylornithine, reference compound]
pIC50 [3]: 5.44
IC90 [3]: 8.8 µM

O=C1O[C@H]([C@@H](O)CO)C(O)=C1O [Ascorbic acid]
DPPH Scavenging IC50 [20]: 0.043 ± 0.006 mg/mL

C[C@@H]1O[C@@H](O[C@@H]2[C@@H](O)[C@H](O)[C@@H](CO)O[C@H]2c2c(O)cc(O)c3c(=O)cc(-c4ccc(O)c(O)c4)oc23)[C@H](O)[C@H](O)[C@H]1O [Compound 4, 2″-O-α-L-rhamnosylorientin]
IC50 [10]: > 20 µg/mL
IC50 ([17]; pure compounds): > 20 µg/mL
THP1 Cytotoxicity C90 [1]: >10 µM
pIC50 [2, 21]: < 5.00
IC50 [11]: > 20 µg/mL
pIC50 ([3]; Trypanosoma brucei): < 5.00
IC90 ([3]; Trypanosoma brucei): > 10 µM
T. brucei IC50 ([3]; as given in the text): didn’t show an effect
% Decrease in Oxidative Stress ([19]; concentration 250 µg/mL): 28%
% Decrease in Oxidative Stress ([19]; concentration 500 µg/mL): 29%
% Decrease in Oxidative Stress ([19]; concentration 1000 µg/mL): 36%
pIC50 [4]: < 5.00
IC90 [4]: > 10 µM
IC50 [12]: > 20 µg/mL
pIC50 [5]: < 5.00
IC90 [5]: > 10 µM
IC50 ([18]; pure compounds): > 20 µg/mL
IC50 [14]: > 20 µg/mL
pIC50 [6]: < 5.00
IC90 [6]: > 10000 nM
IC50 [15]: > 20 µg/mL

O=C(O)c1cn(C2CC2)c2cc(N3CCNCC3)c(F)cc2c1=O [CIPRO, Ciprofloxacin, reference compound]
inhibition at 50 µg/mL [10]: 100%
inhibition at 50 µg/mL [17]: 0%
inhibition at 50 µg/mL [11]: 0%
inhibition at 50 µg/mL [12]: 96%
inhibition at 50 µg/mL [14]: 0%
